Source: patent publication US20070004660A1, “Synergistic Modulation of Flt3 Kinase Using Alkylquinolines and Alkylquinazolines” (priority 2005, published 2007)

What follows are compounds tested against T1, wild-type FLT3 receptor (Homo sapiens, UniProt P36888) (assay: Cell-based FLT3 receptor ELISA (FLT ligand-induced phosphorylation in Baf3 FLT3 cells)). Conditions: 100 ng/mL Flt ligand, uncertainty ±20%.
T1 construct: host or cells: Baf3 (murine B cell lymphoma line), stably transfected
T1 sequence (P36888 27-993): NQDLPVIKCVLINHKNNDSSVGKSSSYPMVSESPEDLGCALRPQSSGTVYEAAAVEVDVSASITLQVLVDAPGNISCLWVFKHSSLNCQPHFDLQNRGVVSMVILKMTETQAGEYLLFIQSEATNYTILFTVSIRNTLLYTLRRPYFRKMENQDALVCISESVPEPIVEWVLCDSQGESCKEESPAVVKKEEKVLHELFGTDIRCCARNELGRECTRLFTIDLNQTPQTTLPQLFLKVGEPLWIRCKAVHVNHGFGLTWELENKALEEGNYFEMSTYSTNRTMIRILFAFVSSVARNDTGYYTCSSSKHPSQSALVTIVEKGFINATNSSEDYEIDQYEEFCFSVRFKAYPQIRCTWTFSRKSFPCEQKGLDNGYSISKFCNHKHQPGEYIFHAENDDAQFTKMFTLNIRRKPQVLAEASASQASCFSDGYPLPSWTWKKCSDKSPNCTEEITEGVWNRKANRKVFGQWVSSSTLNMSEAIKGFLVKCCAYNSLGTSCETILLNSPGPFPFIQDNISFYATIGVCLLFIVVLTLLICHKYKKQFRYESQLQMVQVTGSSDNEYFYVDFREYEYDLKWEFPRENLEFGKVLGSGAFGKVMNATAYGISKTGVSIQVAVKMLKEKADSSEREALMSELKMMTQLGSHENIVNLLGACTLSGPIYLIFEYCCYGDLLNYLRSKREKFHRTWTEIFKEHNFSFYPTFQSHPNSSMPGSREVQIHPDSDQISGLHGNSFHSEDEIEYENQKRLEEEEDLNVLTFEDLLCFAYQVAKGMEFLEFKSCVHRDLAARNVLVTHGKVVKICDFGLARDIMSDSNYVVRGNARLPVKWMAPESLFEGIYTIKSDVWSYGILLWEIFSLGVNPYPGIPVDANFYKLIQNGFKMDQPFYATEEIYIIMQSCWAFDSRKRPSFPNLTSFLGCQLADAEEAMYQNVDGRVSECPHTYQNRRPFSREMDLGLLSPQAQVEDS
Procedure, shortened: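 Receptor phosphotyrosine measured by sandwich ELISA (anti-FLT3 capture, HRP anti-pTyr, luminescence) in FLT3-transfected murine Baf3 cells given 1 h compound pretreatment and 10 min 100 ng/mL FLT ligand after overnight low-serum starvation; triplicates, IC50 from nonlinear regression.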

Structure (SMILES) | IC50 [nM]
CN1CCN(CCCOc2ccc3c(C4CCN(C(=O)Nc5cnc(N6CCCC6)nc5)CC4)ncnc3c2)CC1 [Example 105, 4-{7-[3-(4-Methyl-piperazin-1-yl)-propoxy]-quinazolin-4-yl}-piperidine-1-carboxylic acid (2-pyrrolidin-1-yl-pyrimidin-5-yl)-amide] | 98
CN1CCC(COc2ccc3c(C4CCN(C(=O)Nc5ccc(OC6CCC6)nc5)CC4)ncnc3c2)CC1 [Example 107, 4-[7-(1-Methyl-piperidin-4-ylmethoxy)-quinazolin-4-yl]-piperidine-1-carboxylic acid (6-cyclobutoxy-pyridin-3-yl)-amide] | 21
CN1CCC(COc2ccc3c(C4CCN(C(=O)Nc5ccc(N6CCOCC6)nc5)CC4)ncnc3c2)CC1 [Example 108, 4-[7-(1-Methyl-piperidin-4-ylmethoxy)-quinazolin-4-yl]-piperidine-1-carboxylic acid (6-morpholin-4-yl-pyridin-3-yl)-amide] | 53
CN1CCC(COc2ccc3c(C4CCN(C(=O)Nc5ccc(N6CCCC6)cc5)CC4)ncnc3c2)CC1 [Example 109, 4-[7-(1-Methyl-piperidin-4-ylmethoxy)-quinazolin-4-yl]-piperidine-1-carboxylic acid (4-pyrrolidin-1-yl-phenyl)-amide] | 10
O=C(NCCCOc1ccc2c(C3CCN(C(=O)Nc4ccc(N5CCCC5)nc4)CC3)ncnc2c1)N1CCOCC1 [Example 112, Morpholine-4-carboxylic acid (3-{4-[1-(6-pyrrolidin-1-yl-pyridin-3-ylcarbamoyl)-piperidin-4-yl]-quinazolin-7-yloxy}-propyl)-amide] | 79
CCN1CCN(CCCOc2ccc3c(C4CCN(C(=O)Nc5ccc(N6CCOCC6)cc5)CC4)ncnc3c2)CC1 [Example 115, 4-{7-[3-(4-Ethyl-piperazin-1-yl)-propoxy]-quinazolin-4-yl}-piperidine-1-carboxylic acid (4-morpholin-4-yl-phenyl)-amide] | 9
O=C(Nc1ccc(N2CCOCC2)cc1)N1CCC(c2ncnc3cc(OCCCN4CCN(CCO)CC4)ccc23)CC1 [Example 116, 4-(7-{3-[4-(2-Hydroxy-ethyl)-piperazin-1-yl]-propoxy}-quinazolin-4-yl)-piperidine-1-carboxylic acid (4-morpholin-4-yl-phenyl)-amide] | 25
CC(=O)N1CCN(CCCOc2ccc3c(C4CCN(C(=O)Nc5ccc(N6CCOCC6)cc5)CC4)ncnc3c2)CC1 [Example 117, 4-{7-[3-(4-Acetyl-piperazin-1-yl)-propoxy]-quinazolin-4-yl}-piperidine-1-carboxylic acid (4-morpholin-4-yl-phenyl)-amide] | 88
CS(=O)(=O)N1CCN(CCCOc2ccc3c(C4CCN(C(=O)Nc5ccc(N6CCOCC6)cc5)CC4)ncnc3c2)CC1 [Example 118, 4-{7-[3-(4-Methanesulfonyl-piperazin-1-yl)-propoxy]-quinazolin-4-yl}-piperidine-1-carboxylic acid (4-morpholin-4-yl-phenyl)-amide] | 10
O=C(Nc1ccc(N2CCOCC2)cc1)N1CCC(c2ncnc3cc(OCCCN4CCC[C@H]4CO)ccc23)CC1 [Example 119, (S)-4-{7-[3-(2-Hydroxymethyl-pyrrolidin-1-yl)-propoxy]-quinazolin-4-yl}-piperidine-1-carboxylic acid (4-morpholin-4-yl-phenyl)-amide] | 37
CN(C)C(=O)N1CCN(CCCOc2ccc3c(C4CCN(C(=O)Nc5ccc(N6CCOCC6)cc5)CC4)ncnc3c2)CC1 [Example 120, 4-(3-{4-[1-(4-Morpholin-4-yl-phenylcarbamoyl)-piperidin-4-yl]-quinazolin-7-yloxy}-propyl)-piperazine-1-carboxylic acid dimethylamide] | 23
CC(C)Oc1ccc(NC(=O)N2CCC(c3ncnc4cc(OCCCOS(C)(=O)=O)ccc34)CC2)cc1 [Example 121, Methanesulfonic acid 3-{4-[1-(4-isopropoxy-phenylcarbamoyl)-piperidin-4-yl]-quinazolin-7-yloxy}-propyl ester] | 117
CS(=O)(=O)OCCCOc1ccc2c(C3CCN(C(=O)Nc4ccc(N5CCOCC5)cc4)CC3)ncnc2c1 [Example 122, Methanesulfonic acid 3-{4-[1-(4-morpholin-4-yl-phenylcarbamoyl)-piperidin-4-yl]-quinazolin-7-yloxy}-propyl ester] | 110
O=C(Nc1ccc(N2CCOCC2)cc1)N1CCC(c2ncnc3cc(OCCCN4CCCC4)ccc23)CC1 [Example 124, 4-[7-(3-Pyrrolidin-1-yl-propoxy)-quinazolin-4-yl]-piperidine-1-carboxylic acid (4-morpholin-4-yl-phenyl)-amide] | 63
CN1CCCN(CCCOc2ccc3c(C4CCN(C(=O)Nc5ccc(N6CCOCC6)cc5)CC4)ncnc3c2)CC1 [Example 125, 4-{7-[3-(4-Methyl-[1,4]diazepan-1-yl)-propoxy]-quinazolin-4-yl}-piperidine-1-carboxylic acid (4-morpholin-4-yl-phenyl)-amide] | 66
